According to PubChem BioAssay AID2060886 (Molecular Pharmacology Branch, DTP, NCI, 2025):

Test system: 653999-131-R-J2-PDC complex spheroids, growth inhibition
Assay: Anticancer human tumor 653999-131-R-J2-PDC patient-derived lung adenocarcinoma cell line growth inhibition [RAS]
Conditions: for viability, T/C: stronger effect = lower value
Excerpt: RAS pathway inhibitors in Combinations in Complex Spheroids
A high-throughput screen of multi-cell type tumor spheroids was designed to identify active combinations of RAS pathway inhibitors and targeted small molecules. Complex spheroids include a stromal component modeled by human endothelial cells (HUVEC) and fibroblasts modeled by human mesenchymal stem cells (MSCs). The concentration ranges selected for each drug and investigational agent were based upon clinically achievable concentrations if the clinical Cmax of the agent was known.
Compounds. The drugs and investigational agents: abemaciclib (NSC768073), cobimetinib (NSC768068), divarasib (GDC6063, NSC841802), docetaxel (NSC628503), GDC-1971 (RLY-1971, NSC841576), gemcitabine (NSC613327), inavolisib (NSC800729), ipatasertib (NSC767898), KB-0742 (NSC834161), MRTX-1133 (NSC836407), osimertinib (NSC779217), RMC-4630 (NSC839698), RMC-6236 (NSC851965), RMC-6291 (NSC852671), Ro-3306 (NSC812927), sapanisertib (NSC764658), SN-38 (NSC673596), staurosporine (NSC755774), SY5609 (NSC837396), and tovorafenib (DAY101, NSC766906), were obtained from the National Cancer Institute (NCI) Developmental Therapeutics Program Chemical Repository. The FDA-approved anticancer drug set is available from the NCI Developmental Therapeutics Program. […] The stock solutions were prepared in dimethyl sulfoxide (DMSO, Sigma-Aldrich, St. Louis, MO, cat. D2650) at 800-fold the tested concentration and stored at -70 degrees C prior to their use. All drugs and investigational agents were tested over a range starting from a high concentration at or near the clinical Cmax and decreasing in half-log increments. If the clinical Cmax for an agent had not been determined, the highest concentration tested was 10 microM.
Cell Culture. All cells were maintained in an incubator at 37 degrees C and 5% CO2 with 95% humidity. The PDC lines were cultured according to standard operating procedures established by the NCI PDMR. All PDCs were thawed and cultured in Matrigel-coated flasks prepared with a working solution of 1X Ham's F-12 nutrient mix, without supplementation (Invitrogen, Waltham, MA, cat. 11765054), 100 U/mL penicillin-streptomycin (Invitrogen, cat. 15140122), and 2.5% Matrigel (Corning Inc., Corning, NY, cat. 354248) for the first three passages. The 362531-283-R-J2-PDC and 782815-120-R-J1-PDC lines were cultured in 6C/Colon 1B media, which includes advanced DMEM/F-12 (Thermo Fisher Scientific, cat. 12634028), 10 mM HEPES (Thermo Fisher Scientific, cat. 15630080), 1X GlutaMAX supplement (Thermo Fisher Scientific, cat. 35050061), 0.1 mg/mL primocin (InvivoGen, San Diego, CA, cat. ant-pm-2), 10% defined fetal bovine serum, heat inactivated (HyClone Laboratories Inc., Logan, UT, cat. SH30070.03HI), 50% L-WRN conditioned media (ATCC, cat. CRL-3276), 1.25 mM N-Acetyl-L-cysteine (Sigma-Aldrich, cat. A9165), 10 mM nicotinamide (Sigma-Aldrich, cat. N0636), 1X B-27 supplement (Thermo Fisher Scientific, cat. 17504044), 1X N-2 supplement (Thermo Fisher Scientific, cat. 17502048), 50 ng/mL human EGF (Thermo Fisher Scientific, cat. PHG0311), and 10 microM Y-27632 dihydrochloride (Tocris Bioscience, cat. 1254). The K12877-001-R-J1-PDC line was cultured in 6I media, which includes all 6C/Colon 1B media plus 10 ng/mL human FGF-10 (PeproTech, cat. 100-26), 1 ng/mL human FGF-2 (PeproTech, cat. 100-18B), 1 µM prostaglandin E2 (Tocris Bioscience, cat. 2296), […] hydrocortisone (Sigma-Aldrich, cat. H4001), and […] bovine insulin (Sigma-Aldrich, cat. I6634). The K86415-001-R-J1-PDC line was cultured in 6D media, which includes all 6C/Colon 1B media components minus the L-WRN conditioned media. The 485176-168-R4-J1-PDC was cultured in PANC media, which includes all 6C/Colon 1B media plus 100 ng/mL human FGF-10 (PeproTech, cat. 100-26), 500 nM SB-431542 (Selleckchem, cat. S1067), and 10 nM gastrin (Tocris Bioscience, cat. 3006). […]

[1] = curve of first compound, second compound 0.000949 µM
[2] = curve of first compound, second compound 0.003 µM
[3] = curve of first compound, second compound 0.00949 µM
[4] = curve of first compound, second compound 0.03 µM
[5] = curve of first compound, second compound 0.0949 µM
[6] = curve of first compound, second compound 0.3 µM
[7] = second compound 0.000949 µM, first compound 0.0316 µM
[8] = second compound 0.000949 µM, first compound 0.1 µM
[9] = second compound 0.000949 µM, first compound 0.316 µM
[10] = second compound 0.000949 µM, first compound 1 µM
[11] = second compound 0.000949 µM, first compound 3.16 µM
[12] = second compound 0.000949 µM, first compound 10 µM
[13] = second compound 0.003 µM, first compound 0.0316 µM
[14] = second compound 0.003 µM, first compound 0.1 µM
[15] = second compound 0.003 µM, first compound 0.316 µM
[16] = second compound 0.003 µM, first compound 1 µM
[17] = second compound 0.003 µM, first compound 3.16 µM
[18] = second compound 0.003 µM, first compound 10 µM
[19] = second compound 0.00949 µM, first compound 0.0316 µM
[20] = second compound 0.00949 µM, first compound 0.1 µM
[21] = second compound 0.00949 µM, first compound 0.316 µM
[22] = second compound 0.00949 µM, first compound 1 µM
[23] = second compound 0.00949 µM, first compound 3.16 µM
[24] = second compound 0.00949 µM, first compound 10 µM
[25] = second compound 0.03 µM, first compound 0.0316 µM
[26] = second compound 0.03 µM, first compound 0.1 µM
[27] = second compound 0.03 µM, first compound 0.316 µM
[28] = second compound 0.03 µM, first compound 1 µM
[29] = second compound 0.03 µM, first compound 3.16 µM
[30] = second compound 0.03 µM, first compound 10 µM
[31] = second compound 0.0949 µM, first compound 0.0316 µM
[32] = second compound 0.0949 µM, first compound 0.1 µM
[33] = second compound 0.0949 µM, first compound 0.316 µM
[34] = second compound 0.0949 µM, first compound 1 µM
[35] = second compound 0.0949 µM, first compound 3.16 µM
[36] = second compound 0.0949 µM, first compound 10 µM
[37] = second compound 0.3 µM, first compound 0.0316 µM
[38] = second compound 0.3 µM, first compound 0.1 µM
[39] = second compound 0.3 µM, first compound 0.316 µM
[40] = second compound 0.3 µM, first compound 1 µM
[41] = second compound 0.3 µM, first compound 3.16 µM
[42] = second compound 0.3 µM, first compound 10 µM
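Note: spheroids exposed to the agents for seven days before the readout.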

Cc1nc(N2CCC3(CC2)COC(C)C3N)c(CO)nc1Sc1ccnc(N)c1Cl (stereo not given) + CCn1c(-c2cc(N3CCN(C)CC3)cnc2C(C)OC)c2c3cc(ccc31)-c1csc(n1)CC(NC(=O)C1CC1C)C(=O)N1CCCC(N1)C(=O)OCC(C)(C)C2
IC50 [1]: > 10 µM | IC50 [2]: > 10 µM | IC50 [3]: < 0.0316 µM | IC50 [4]: < 0.0316 µM | IC50 [5]: < 0.0316 µM | IC50 [6]: < 0.0316 µM | viability, T/C [7]: 80.8% | viability, T/C [8]: 91.1% | viability, T/C [9]: 76.1% | viability, T/C [10]: 80.9% | viability, T/C [11]: 64.2% | viability, T/C [12]: 76.8% | viability, T/C [13]: 60.9% | viability, T/C [14]: 47.7% | viability, T/C [15]: 64% | viability, T/C [16]: 54.8% | viability, T/C [17]: 47% | viability, T/C [18]: 54.1% | viability, T/C [19]: 43.1% | viability, T/C [20]: 34.9% | viability, T/C [21]: 37.4% | viability, T/C [22]: 41.1% | viability, T/C [23]: 24.6% | viability, T/C [24]: 29.7% | viability, T/C [25]: 36.7% | viability, T/C [26]: 30.2% | viability, T/C [27]: 21% | viability, T/C [28]: 19.1% | viability, T/C [29]: 17.3% | viability, T/C [30]: 15.9% | viability, T/C [31]: 21.4% | viability, T/C [32]: 27.6% | viability, T/C [33]: 14.4% | viability, T/C [34]: 14.2% | viability, T/C [35]: 11% | viability, T/C [36]: 11.9% | viability, T/C [37]: 23.4% | viability, T/C [38]: 18.5% | viability, T/C [39]: 20% | viability, T/C [40]: 12.7% | viability, T/C [41]: 10.1% | viability, T/C [42]: 7.03%

NC1c2ccccc2OC12CCN(c1cnc3c(N4CCCc5ncccc54)n[nH]c3n1)CC2 (stereo not given)
viability, T/C (compound 0.0316 µM): 73.8% [middle of 4 runs] | viability, T/C (compound 0.316 µM): 75.5% [middle of 4 runs] | viability, T/C (compound 1 µM): 77.6% [middle of 4 runs] | viability, T/C (compound 3.16 µM): 83.9% [middle of 4 runs] | viability, T/C (compound 10 µM): 78.4% [middle of 4 runs] | IC50 (curve of compound): > 10 µM

CC(C)NCC(C(=O)N1CCN(c2ncnc3c2C(C)CC3O)CC1)c1ccc(Cl)cc1 (stereo not given) + CCn1c(-c2cc(N3CCN(C)CC3)cnc2C(C)OC)c2c3cc(ccc31)-c1csc(n1)CC(NC(=O)C1CC1C)C(=O)N1CCCC(N1)C(=O)OCC(C)(C)C2
IC50 [1]: 0.649 µM | IC50 [2]: 0.19 µM | IC50 [3]: < 0.0316 µM | IC50 [4]: < 0.0316 µM | IC50 [5]: < 0.0316 µM | IC50 [6]: < 0.0316 µM | viability, T/C [7]: 79.2% | viability, T/C [8]: 89.7% | viability, T/C [9]: 61.1% | viability, T/C [10]: 43.9% | viability, T/C [11]: 26.6% | viability, T/C [12]: 26.9% | viability, T/C [13]: 72.5% | viability, T/C [14]: 52.9% | viability, T/C [15]: 50.8% | viability, T/C [16]: 29.6% | viability, T/C [17]: 26.6% | viability, T/C [18]: 20.4% | viability, T/C [19]: 49.7% | viability, T/C [20]: 39.6% | viability, T/C [21]: 38.4% | viability, T/C [22]: 28.8% | viability, T/C [23]: 16.4% | viability, T/C [24]: 14.4% | viability, T/C [25]: 34.2% | viability, T/C [26]: 36.5% | viability, T/C [27]: 23.9% | viability, T/C [28]: 18.6% | viability, T/C [29]: 10.3% | viability, T/C [30]: 9.69% | viability, T/C [31]: 27.3% | viability, T/C [32]: 23.8% | viability, T/C [33]: 18.5% | viability, T/C [34]: 13.7% | viability, T/C [35]: 9.85% | viability, T/C [36]: 5.97% | viability, T/C [37]: 24% | viability, T/C [38]: 20.4% | viability, T/C [39]: 20.9% | viability, T/C [40]: 14.7% | viability, T/C [41]: 8.46% | viability, T/C [42]: 5.88%
